Article PMC6799938, “Determinants of drug entry into the developing brain” (F1000Research, 2019)
Like-named read-outs stand apart in the source and are kept apart here.

Assays:
[1] = Sprague Dawley, rat, in vivo
[2] = for Brain radioactivity level / CSF radioactivity level / Plasma radioactivity level: mean; for Brain/Plasma Ratio / CSF/Plasma Ratio: mean ± SD
Procedure: Animals. Sprague Dawley rats were supplied by the University of Melbourne Biological Research Facility and housed in groups of 2–4 (adult) or full litters per cage (25cm x 35cm x 25cm on Breeders Choice paper bedding, made from 99% recycled paper; it is biodegradable with no added chemicals), on a 12 h light/dark cycle with ad libitum access to food (dry pellets of a fixed formulation diet for laboratory rats and mice fortified with vitamins and minerals to meet the requirements of breeding animals after the diet is autoclaved or irradiated, supplied by Speciality Feeds, Western Australia) and water. Age groups investigated (at treatment completion) were time mated pregnant females at E19 (350-400g body weight), postnatal pups at P4 and non-pregnant female adults (175-230g body weight). E19 was chosen because this is a stage of development when adequate volumes of blood and CSF can be obtained for analysis from fetal rats without pooling ( [Dziegielewska et al., 1981]) and individual pups can be injected intraperitoneally while still inside the uterine horn and kept viable for periods of time. P4 was chosen because its stage of brain development is similar to that of very prematurely born but viable human infants of 22–24 weeks gestation ( [Clancy et al., 2001]). Animal numbers were based on previous experience of such experiments and were the minimum number required to detect a significant difference between groups at P <0.05.
Drug doses. Drug doses were selected based on use in clinical practice ( [Australian Medicines Handbook, 2019]) and adjusted for body weight.
Experimental procedure. In acute drug experiments, a single dose was injected that included traces of [ ^3H]-labelled drug (20µCi adults, 2µCi newborns). In chronic experiments, doses of unlabelled drug were given twice daily (09.00 and 17.00h) for four days before a final injection on the 5 ^th day identical to acute experiments. In passive marker experiments, all dosing was acute and contained only the [ ^3H]- or [ ^14C]-labelled compound (20µCi adults, 2µCi newborns).
In all experiments involving postnatal animals, injections were intraperitoneal (i.p.). In pregnant animals for fetal drug entry studies, the final injection of the radiolabelled marker was given intravenously (i.v.), as the peritoneal cavity required opening prior to the sampling period to gain access to the fetuses. For passive markers (L-glucose, sucrose and glycerol), fetal animals were individually injected i.p. while still within the uterine horn. All experiments took place between 09.00 and 15.00h. All pregnancy studies were completed with a single treatment group on one day. Postnatal groups were conducted with a single treatment group on one day or with the chronic group completed prior to the acute group.
Sample collection. Samples were collected 30 minutes after the final injection. This duration was chosen partly to limit any potential metabolism of the drugs and markers used but also to allow enough time for i.p. injected markers to reach the blood stream and, from there, to access the brain parenchyma across brain barriers, as well as to limit the CSF sink effect that could influence drug levels ( [Bito et al., 1966]). Thirty minutes is also within the half-life of these drugs ( [Adedoyin et al., 1987]; [Harrison & Gibaldi, 1976]; Lin & Levy, 1963). The other reason a 30-minute duration was chosen is that in the case of exposed fetal rat pups, it is difficult to maintain them in a reasonable physiological state for long periods due to deterioration of placental perfusion. Therefore, for comparative purposes, all studies were conducted at the same time.
For adult and newborn (P4) experiments, animals were terminally anaesthetized using inhaled isofluorane (IsoFlo 100% w/w, Abbott Laboratories).

[3] = choroid plexus (lateral ventricular), E19
[4] = choroid plexus (lateral ventricular), P4
[5] = choroid plexus (lateral ventricular), adult
[6] = E19 fetuses, acute, 30 min - […] after administration
[7] = E19 fetuses, acute, listed as cimetidine
[8] = E19 fetuses, chronic (twice daily over five days), 30 min - […] after final dose
[9] = P4, acute, 30 min, listed as cimetidine
[10] = P4, chronic i.p. (twice daily over five days), 30 min after final dose
[11] = adult, acute, 30 min, listed as cimetidine
[12] = adult, chronic i.p. (twice daily over five days), 30 min after final dose

## CN/C(=N/CCSCc1nc[nH]c1C)NC#N [Cimetidine]
abcc1 (MRP1); brain cortex, E19
  abcc1 expression, fold change chronic vs acute: 1.00 fold
abcc1 (MRP1); brain cortex, P4
  abcc1 expression, fold change chronic vs acute: 1.11 fold
abcc1 (MRP1); brain cortex, adult
  abcc1 expression, fold change chronic vs acute: 1.20 fold
abcc1 (MRP1); [3]
  abcc1 expression, fold change chronic vs acute: 1.28 fold
abcc1 (MRP1); [4]
  abcc1 expression, fold change chronic vs acute: 0.96 fold
abcc1 (MRP1); [5]
  abcc1 expression, fold change chronic vs acute: 1.06 fold
abcc2 (MRP2); brain cortex, E19
  abcc2 expression, fold change chronic vs acute: 0.96 fold
abcc2 (MRP2); brain cortex, P4
  abcc2 expression, fold change chronic vs acute: ↓ 0.92 fold
abcc2 (MRP2); brain cortex, adult
  abcc2 expression, fold change chronic vs acute: 1.00 fold
abcc2 (MRP2); [3]
  abcc2 expression, fold change chronic vs acute: 1.19 fold
abcc2 (MRP2); [4]
  abcc2 expression, fold change chronic vs acute: 1.04 fold
abcc2 (MRP2); [5]
  abcc2 expression, fold change chronic vs acute: 0.86 fold
abcc2 (MRP2); placenta, E19
  abcc2 expression, fold change chronic vs acute: *10.07 fold
abcc3 (MRP3); brain cortex, E19
  abcc3 expression, fold change chronic vs acute: 0.81 fold
abcc3 (MRP3); brain cortex, P4
  abcc3 expression, fold change chronic vs acute: 1.12 fold
abcc3 (MRP3); brain cortex, adult
  abcc3 expression, fold change chronic vs acute: 1.18 fold
abcc3 (MRP3); [3]
  abcc3 expression, fold change chronic vs acute: 1.46 fold
abcc3 (MRP3); [4]
  abcc3 expression, fold change chronic vs acute: 1.05 fold
abcc3 (MRP3); [5]
  abcc3 expression, fold change chronic vs acute: 1.12 fold
abcc3 (MRP3); placenta, E19
  abcc3 expression, fold change chronic vs acute: 0.96 fold
[1]
  restriction of transfer by the placenta: ~70%
[2]; E19, acute
  transfer from maternal blood to fetal brain: 17%
[2]; [6]
  Brain radioactivity level: 7.3 DPM/µg
  CSF radioactivity level: 7.0 DPM/µl
  Plasma radioactivity level: 13.0 DPM/µl
[2]; E19 fetuses, acute
  Brain/Plasma Ratio: 56 ± 10%
  CSF/Plasma Ratio: 54 ± 11%
[2]; [7]
  Brain/Plasma Ratio: 56%
  CSF/Plasma Ratio: 54%
[2]; [8]
  Brain radioactivity level: 8.8 DPM/µg
  CSF radioactivity level: 8.4 DPM/µl
  Plasma radioactivity level: 13.3 DPM/µl
[2]; E19 fetuses, chronic
  Brain/Plasma Ratio: 65 ± 19%
  CSF/Plasma Ratio: 63 ± 15%
[2]; P4, acute i.p., 30 min
  Brain radioactivity level: 37.2 DPM/µg
  CSF radioactivity level: 24.3 DPM/µl
  Plasma radioactivity level: 310.9 DPM/µl
[2]; P4, acute, 30 min
  Brain/Plasma Ratio: 12 ± 1%
  CSF/Plasma Ratio: 8 ± 1%
[2]; [9]
  Brain/Plasma Ratio: 12%
  CSF/Plasma Ratio: 8%
[2]; [10]
  Brain radioactivity level: 45.7 DPM/µg
  CSF radioactivity level: 27.8 DPM/µl
  Plasma radioactivity level: 373.2 DPM/µl
[2]; P4, chronic, 30 min
  Brain/Plasma Ratio: 12 ± 2%
  CSF/Plasma Ratio: 7 ± 1%
[2]; acute
  transfer into maternal brain (brain/maternal blood): 13%
[2]; adult, acute i.p., 30 min
  Brain radioactivity level: 6.2 DPM/µg
  CSF radioactivity level: 6.0 DPM/µl
  Plasma radioactivity level: 55.9 DPM/µl
[2]; adult, acute, 30 min
  Brain/Plasma Ratio: 13 ± 5%
  CSF/Plasma Ratio: 12 ± 3%
[2]; [11]
  Brain/Plasma Ratio: 13%
  CSF/Plasma Ratio: 12%
[2]; [12]
  Brain radioactivity level: 11.6 DPM/µg
  CSF radioactivity level: 11.1 DPM/µl
  Plasma radioactivity level: 90.7 DPM/µl
[2]; adult, chronic, 30 min
  Brain/Plasma Ratio: 13 ± 1%
  CSF/Plasma Ratio: 12 ± 1%
abcc4 (MRP4); brain cortex, E19
  abcc4 expression, fold change chronic vs acute: 0.98 fold
abcc4 (MRP4); brain cortex, P4
  abcc4 expression, fold change chronic vs acute: 1.18 fold
abcc4 (MRP4); brain cortex, adult
  abcc4 expression, fold change chronic vs acute: 1.00 fold
abcc4 (MRP4); [3]
  abcc4 expression, fold change chronic vs acute: 1.17 fold
abcc4 (MRP4); [4]
  abcc4 expression, fold change chronic vs acute: 1.12 fold
abcc4 (MRP4); [5]
  abcc4 expression, fold change chronic vs acute: ↑ 1.49 fold
abcc4 (MRP4); placenta, E19
  abcc4 expression, fold change chronic vs acute: 0.69 fold
abcc5 (MRP5); brain cortex, E19
  abcc5 expression, fold change chronic vs acute: 0.97 fold
abcc5 (MRP5); brain cortex, P4
  abcc5 expression, fold change chronic vs acute: ↑ 1.24 fold
abcc5 (MRP5); brain cortex, P4, listed as cimetidine
  abcc5 expression, fold change chronic vs acute: 1.24 fold
abcc5 (MRP5); brain cortex, adult
  abcc5 expression, fold change chronic vs acute: 1.11 fold
abcc5 (MRP5); [3]
  abcc5 expression, fold change chronic vs acute: 1.19 fold
abcc5 (MRP5); [4]
  abcc5 expression, fold change chronic vs acute: 0.86 fold
abcc5 (MRP5); [5]
  abcc5 expression, fold change chronic vs acute: 1.21 fold
abcc5 (MRP5); placenta, E19
  abcc5 expression, fold change chronic vs acute: 1.14 fold
abcb1b (PGP); brain cortex, E19
  abcb1b expression, fold change chronic vs acute: 1.09 fold
abcb1b (PGP); brain cortex, P4
  abcb1b expression, fold change chronic vs acute: 1.03 fold
abcb1b (PGP); brain cortex, adult
  abcb1b expression, fold change chronic vs acute: 0.87 fold
abcb1b (PGP); [3]
  abcb1b expression, fold change chronic vs acute: 1.66 fold
abcb1b (PGP); [4]
  abcb1b expression, fold change chronic vs acute: 1.00 fold
abcb1b (PGP); [5]
  abcb1b expression, fold change chronic vs acute: 1.15 fold
abcb1b (PGP); placenta, E19
  abcb1b expression, fold change chronic vs acute: 1.00 fold
abcb1a (PGP); brain cortex, E19
  abcb1a expression, fold change chronic vs acute: 0.93 fold
abcb1a (PGP); brain cortex, P4
  abcb1a expression, fold change chronic vs acute: ↑ 1.23 fold
abcb1a (PGP); brain cortex, adult
  abcb1a expression, fold change chronic vs acute: 1.06 fold
abcb1a (PGP); [3]
  abcb1a expression, fold change chronic vs acute: 1.73 fold
abcb1a (PGP); [4]
  abcb1a expression, fold change chronic vs acute: 1.72 fold
abcb1a (PGP); [5]
  abcb1a expression, fold change chronic vs acute: 1.06 fold
abcb1a (PGP); placenta, E19
  abcb1a expression, fold change chronic vs acute: 0.86 fold
abcg2 (BCRP); brain cortex, E19
  abcg2 expression, fold change chronic vs acute: 0.80 fold
abcg2 (BCRP); brain cortex, P4
  abcg2 expression, fold change chronic vs acute: 1.11 fold
abcg2 (BCRP); brain cortex, adult
  abcg2 expression, fold change chronic vs acute: 0.98 fold
abcg2 (BCRP); [3]
  abcg2 expression, fold change chronic vs acute: 1.01 fold
abcg2 (BCRP); [4]
  abcg2 expression, fold change chronic vs acute: 0.73 fold
abcg2 (BCRP); [5]
  abcg2 expression, fold change chronic vs acute: 0.91 fold
abcg2 (BCRP); placenta, E19
  abcg2 expression, fold change chronic vs acute: 1.24 fold
